Consider three compounds from paper PMC10669220, “In Vitro α-Glucosidase and α-Amylase Inhibition, Cytotoxicity and Free Radical Scavenging Profiling of the 6-Halogeno and Mixed 6,8-Dihalogenated 2-Aryl-4-methyl-1,2-dihydroquinazoline 3-Oxides” (Antioxidants, 2023).

Data set [1] concerns human embryonic kidney (HEK293-T) cell line. The data set can be described thus: MTT cytotoxicity assay, HEK293-T. The settings on record: Homo sapiens, HEK-293T, read-out: IC50 Hek293-T.
A short description of data set [2]: MTT cytotoxicity assay, HEK293-T. The settings on record: human, HEK293-T cells.
Data set [3] is described as follows: DPPH radical scavenging assay. The note with it: mean ± SD; 45 min in the dark; 512 nm. In a few lines:
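Compounds (0–50 µM, in DMSO) were mixed with 0.20 mM DPPH in methanol and kept in the dark for 45 min, with absorbance read at 512 nm. IC50 values were obtained by nonlinear regression of triplicate averaged readings.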

Data set [4] is described as follows: NO free radical scavenging assay (sodium nitroprusside/Griess). The note with it: mean ± SD; sodium nitroprusside, Griess reagent, 550 nm. Summed up: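 Test compound incubated with 10 mM sodium nitroprusside (stock) in phosphate buffer for 2.5 h at 25 °C, then Griess reagent added for 30 min. Triplicate absorbance means used for IC50 by nonlinear dose–response regression.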

In data set [5] the target is superoxide dismutase (SOD). Nature of the data set: Superoxide dismutase (SOD) inhibitory assay (SOD assay kit-WST). The class given is biochemical. The settings on record: duplicate; 1-50 µM; 25 °C, 30 min; read-out: IC50 SOD inhibition. The method, then:
The antioxidant activity of the compounds 3a, 3c, 3f, 3i, 3l, 3n and 3p against superoxide radicals was assessed via enzymatic assay in vitro using the SOD assay kit-WST according to the manufacturer’s instructions (Sigma-Aldrich®). The reaction mixtures in the SOD kit were combined with 20 μL of working solution of the samples in a 96-well plate. Plates were gently shaken and then incubated at 25 °C for 30 min. The reference positive control, diphenyleneiodonium (DPI), and the compounds were tested at 01, 5, 10, 25 and 50 µM in duplicates. The inhibition activity of SOD on the reaction of […] generated the superoxide with a tetrazolium salt, which was then determined by measuring the absorbance of the mixtures at a wavelength of 450 nm using an Elisa plate reader (Varioskan Flash, ThermoFisher Scientific, Vantaa, Finland). The SOD activity values obtained used to calculate the percentage of inhibition. % SOD activity=ODx− ODy/ODx ×100% where ODx is the absorbance of the blank (untreated SOD) and ODy is the absorbance of the sample (treated SOD). All tests were performed in duplicate.

The subject of data set [6] is NO generated from nitric oxide synthase (NOS). Nature of the data set: Inhibitory activity against NO generated from NOS (EnzyChrom kit). Type of data set: biochemical. The note with it: mean ± SD, 1-50 µM. The method, then:
(§1) A nitric oxide synthase (NOS) assay was performed following the procedure recommended by the manufacturer as outlined in the screening kit (Catalogue No. EINO-100; EnzyChrom). Various concentrations (1, 5, 10, 25 and 50 µM) of the compounds 3a, 3c, 3f, 3i, 3l, 3n and 3p and the reference standard, ascorbic acid, were prepared. The enzyme solution (12.5 U/mL NOS, 10 µL), assay buffer (25 µL) and test samples (5 µL) were incubated at room temperature for 15 min. After pre-incubation, 10 µL of reaction mix was added and incubated at 37 °C for 60 min. A 200 µL quantity of NO detection reagent was added, the detection reaction was run at 37 °C for 60 min, and absorbance was determined at a wavelength of 540 nm using an Elisa plate reader (Varioskan Flash, ThermoFisher Scientific, Vantaa, Finland). The average of three readings was used to calculate the NOS percentage inhibition using the following formula: % Inhibition=1−ΔOD Test Compd/ΔOD No Inhibitor ×100%
The IC50 values and standard deviation values were determined from nonlinear regression dose–response curve and compared with the results in GraphPad prism.

Data set [7] concerns breast cancer (MCF-7) cell line. The data set can be described thus: MTT cytotoxicity assay, MCF-7. The settings on record: for Cell viability percentage, MCF-7: Table S2; for IC50: Homo sapiens, MCF7, read-out: IC50 MCF-7.
The subject of data set [8] is lung cancer (A549) cell line. The data set can be described thus: MTT cytotoxicity assay, A549. The settings on record: for Cell viability percentage, A549: Table S3; for IC50: Homo sapiens, A549, read-out: IC50 A549.
For another data set, the target named is T1, human α-amylase (Homo sapiens, UniProt P04746).
T1 construct: purchased Abcam ab283391
T1 sequence (P04746 16-511): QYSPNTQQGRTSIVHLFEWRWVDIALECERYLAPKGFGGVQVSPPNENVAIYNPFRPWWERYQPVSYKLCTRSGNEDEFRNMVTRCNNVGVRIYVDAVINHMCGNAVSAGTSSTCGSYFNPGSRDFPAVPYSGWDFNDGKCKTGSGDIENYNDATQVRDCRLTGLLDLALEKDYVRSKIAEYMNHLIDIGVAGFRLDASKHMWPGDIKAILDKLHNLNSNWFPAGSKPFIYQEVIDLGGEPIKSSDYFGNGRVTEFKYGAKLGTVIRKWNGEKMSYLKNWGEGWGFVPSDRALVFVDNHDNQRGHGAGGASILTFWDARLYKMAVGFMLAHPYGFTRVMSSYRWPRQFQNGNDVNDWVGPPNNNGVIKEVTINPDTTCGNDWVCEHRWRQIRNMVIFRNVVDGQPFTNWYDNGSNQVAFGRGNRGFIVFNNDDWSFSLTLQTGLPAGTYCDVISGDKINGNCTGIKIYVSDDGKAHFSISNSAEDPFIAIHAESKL
Nature of the data set: α-amylase inhibitor screening kit assay. Type of data set: biochemical. The settings on record: mean ± SD, triplicate; tested at 1, 5, 10, 25, 50 µM. The procedure:
The α-amylase assay was performed in triplicate, using a 96-well plate following the procedure recommended by the manufacturer as outlined in the α-amylase inhibitor Screening Kit (Catalogue No. ab283391; Abcam). […] The average values obtained from the absorbance readings were used to determine the IC50 and standard deviation values in GraphPad prism from nonlinear regression dose–response curves.

Data set [9] addresses T2, α-Glucosidase type 1 from baker's yeast (Saccharomyces cerevisiae, UniProt P53341).
T2 construct: purchased Sigma Aldrich (Pty) Ltd. G5003
Nature of the data set: biochemical. The note with it: IC50 α-Glucosidase, mean ± SD, triplicate; tested at 1, 5, 10, 25, 50 µM.

Data set [10] has as its system nitric oxide synthase (NOS). The data set can be described thus: Kinetic study on inhibitory activity of NOS. Type of data set: biochemical. The settings on record: seven concentrations 1-10.0 μM; Figure 3; read-out: IC50 NOS inhibition (kinetic study). The method, then: as §1, with “2.5, 4.0, 5.5, 7.0, 8.5” for “5, 10, 25”, “10.0” for “50”, “3i” for “3a, 3c, 3f, 3i, 3l, 3n and 3p”, “DPI,” for “ascorbic acid,”, “uL),” for “µL),”, “formula in Section 2.6.3” for “following formula: % Inhibition=1−ΔOD Test Compd/ΔOD No Inhibitor ×100%”

For data set [11], the system named is NOS of semipurified enzyme preparation or activated macrophage cytosol. The settings on record: 30 min. incubation with 10 μM DPI at 37 °C; cited from earlier work.

T2 sequence (P53341 whole entry): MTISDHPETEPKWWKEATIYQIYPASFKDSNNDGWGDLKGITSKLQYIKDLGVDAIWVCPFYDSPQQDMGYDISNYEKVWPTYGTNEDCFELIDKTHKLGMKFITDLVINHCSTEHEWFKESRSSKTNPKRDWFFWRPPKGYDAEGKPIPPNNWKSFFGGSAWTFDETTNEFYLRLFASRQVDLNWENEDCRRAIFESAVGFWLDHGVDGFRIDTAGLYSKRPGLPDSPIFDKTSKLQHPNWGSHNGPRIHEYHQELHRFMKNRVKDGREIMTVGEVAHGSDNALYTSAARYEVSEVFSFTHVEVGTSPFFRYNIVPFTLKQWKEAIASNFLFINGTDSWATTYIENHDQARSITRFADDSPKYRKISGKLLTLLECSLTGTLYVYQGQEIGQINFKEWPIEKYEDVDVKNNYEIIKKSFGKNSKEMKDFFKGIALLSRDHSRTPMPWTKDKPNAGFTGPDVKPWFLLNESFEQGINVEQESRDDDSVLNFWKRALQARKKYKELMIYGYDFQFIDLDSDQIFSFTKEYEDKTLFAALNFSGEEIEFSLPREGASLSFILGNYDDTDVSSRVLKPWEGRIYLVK

Turning to `COc1ccc(C2Nc3c(Br)cc(I)cc3C(C)=[N+]2[O-])cc1` (centres unmarked) [Compound 3p], the melting point fell in the range of 173 to 174 °C. The IC50 in data set [1] turned out to be 59.02 ± 0.02 µM. In data set [2], this compound showed a viability at 1 µM of 83.4%, a viability at 5 µM of 81.4%, a viability at 10 µM of 75.8% and a viability at 25 µM of 74.7%. This compound also had a viability at 50 µM in [2] of 18.4%. Also, the IC50 in [3] was determined as 60.03 ± 0.014 µM. In data set [4], this compound yielded an IC50 of 5.46 ± 0.004 µM. In data set [5], the IC50 turned out to be 8.3 ± 0.04 µM. This compound also had an IC50 in [6] of 15.51 ± 0.009 µM. In addition, the “Cell viability percentage, MCF-7” value in [7] (Conc. 1 (µM per method)) is recorded as 72,4624%. For the same compound, the “Cell viability percentage, MCF-7” value in [7] (Conc. 5 (µM per method)) is 70,8112%. Moreover, the “Cell viability percentage, MCF-7” value in data set [7] (Conc. 10 (µM per method)) is 59,2339%. The “Cell viability percentage, MCF-7” value in [7] (Conc. 25 (µM per method)) was 43,212%. For the same compound, the “Cell viability percentage, MCF-7” value in data set [7] (Conc. 50 (µM per method)) is listed as 27,8817%. For the same compound, in data set [7], the IC50 was 13.47 ± 0.06 µM. For the same compound, the “Cell viability percentage, A549” value in [8] (Conc. 1 (µM per method)) is 45,0433%. The “Cell viability percentage, A549” value in data set [8] (Conc. 5 (µM per method)) was 44,7771%. Also, the “Cell viability percentage, A549” value in data set [8] (Conc. 10 (µM per method)) was 43,6627%. For the same compound, the “Cell viability percentage, A549” value in data set [8] (Conc. 25 (µM per method)) is recorded as 42,5649%. The “Cell viability percentage, A549” value in data set [8] (Conc. 50 (µM per method)) is 39,3879%. For the same compound, the concentration for half-maximal inhibition (IC50) in [8] was found to be 12.24 ± 0.02 µM. At human α-amylase, this compound yielded an IC50 of 73.66 ± 0.02 µM. The compound also had an IC50 in data set [9] of 0.78 ± 0.05 µM.

In the case of `c1ccc2c(c1)[I+]c1ccccc1-2` [DPI, diphenyleneiodonium chloride, reference compound], the IC50 stood at 3 ± 0.007 µM in data set [10] and 0.71 ± 0.03 µM in data set [5]. Moreover, the “NOS activity after incubation with inhibitor” value in [11] is on record as “irreversibly inhibited”.

Turning to `CC1=[N+]([O-])C(c2ccc(F)cc2)Nc2ccc(I)cc21` (centres unmarked) [Compound 3f], the melting point was in the range of 180 to 182 °C. The IC50 in [1] worked out at 22.32 ± 0.08 µM. In [2], this compound returned a viability at 1 µM of 72%, a viability at 5 µM of 55.2%, a viability at 10 µM of 47.8% and a viability at 25 µM of 36.7%. Also, the viability at 50 µM in data set [2] was found to be 14.7%. The compound further returned an IC50 in data set [3] of 23.66 ± 0.009 µM. Moreover, the IC50 in data set [4] is 6.74 ± 0.002 µM. Further, in data set [5], the IC50 worked out at 11.59 ± 0.08 µM. Also, the IC50 in [6] amounted to 4.7 ± 0.004 µM. Moreover, the “Cell viability percentage, MCF-7” value in [7] (Conc. 1 (µM per method)) was 69,8879%. Moreover, the “Cell viability percentage, MCF-7” value in data set [7] (Conc. 5 (µM per method)) is recorded as 62,4071%. Besides, the “Cell viability percentage, MCF-7” value in data set [7] (Conc. 10 (µM per method)) is listed as 44,9558%. Further, the “Cell viability percentage, MCF-7” value in data set [7] (Conc. 25 (µM per method)) is 32,649%. Moreover, in data set [7] (Conc. 50 (µM per method)), the “Cell viability percentage, MCF-7” value is 23,6814%. In addition, the IC50 in data set [7] worked out at 19.01 ± 0.04 µM. For the same compound, the “Cell viability percentage, A549” value in data set [8] (Conc. 1 (µM per method)) was 82,3715%. Besides, the “Cell viability percentage, A549” value in [8] (Conc. 5 (µM per method)) is given as 71,9204%. Besides, in [8] (Conc. 10 (µM per method)), the “Cell viability percentage, A549” value is 61,143%. In addition, the “Cell viability percentage, A549” value in data set [8] (Conc. 25 (µM per method)) is reported as 44,212%. Also, the “Cell viability percentage, A549” value in [8] (Conc. 50 (µM per method)) was 32,7708%. The IC50 in [8] came out at 13.71 ± 0.11 µM. Further, the IC50 on human α-amylase amounted to 0.64 ± 0.01 µM. 9.27 ± 0.02 µM corresponded to half-maximal inhibition in data set [9] (IC50).
